According to patent publication US20250270564A1, “EXTRACELLULAR VESICLE SECRETION BOOSTER FOR BOOSTING EXTRACELLULAR VESICLE SECRETION, AND USE THEREOF” (THEORIA SCIENCE INC., priority 2021, published 2025):

Columns and labels:
[1] = system: A549; experiment: Amount of secreted EVs (ExoScreen / NTA method); assay type: cell-based, human; details: inhibitor at 10 nmol/L or 100 nmol/L, FIG. 11
Protocol: (§1) For preparation of a secreted EV sample for the ExoScreen method, cells were cultured and supernatant was collected as follows. First, cells were seeded in a 96-well plate using a serum-supplemented medium (the medium according to the type of cells) at 5×10^3 cells/medium 0.1 mL/well (Day 0). After incubation for 24 hours (Day 1), 10 fmol of the miRNA was added, and the cells were transfected with the miRNA using a transfection agent (product name Dhermafect1, manufactured by Dhermacon, the same shall apply hereinafter) according to the instructions for use. […]
(§2) For preparation of a secreted EV sample for the NTA method, cells were cultured and supernatant was collected and purified as follows. […] After collecting the supernatant, the number of cells in each well was counted. […]
EV detection was performed using an exosome marker CD9 or C63 according to the ExoScreen method. EV detection was performed using an AlphaLISA reagent (Perkin Elmer) composed of AlphaScreen streptavidin-coated donor beads (6760002), AlphaLISA unconjugated acceptor beads (6062011), and an AlphaLISA universal buffer (AL001F), a 96-well half-area white plate (6005560, Perkin Elmer), and a detection device EnSpire Alpha 2300 Mutilabel plate reader (Perkin Elmer). […]

[2] = system: HCT116; experiment: Amount of secreted EVs (ExoScreen / NTA method); assay type: cell-based, human; details: inhibitor at 10 nmol/L or 100 nmol/L, FIG. 12
Protocol: as §1, with “[…],” for “10 fmol of the miRNA was added,”
as §2
EV detection was performed using an exosome marker CD9 or C63 according to the ExoScreen method. EV detection was performed using an AlphaLISA reagent (Perkin Elmer) composed of AlphaScreen streptavidin-coated donor beads (6760002), AlphaLISA unconjugated acceptor beads (6062011), and an AlphaLISA universal buffer (AL001F), a 96-well half-area white plate (6005560, Perkin Elmer), and a detection device EnSpire Alpha 2300 Mutilabel plate reader (Perkin Elmer). […] Next, luminescence in the wells of the plate was measured using the detection device with the excitation wavelength set to 680 nm and the emission detection wavelength set to 615 nm. […]

CC(C)(Sc1cc(C(C)(C)C)c(O)c(C(C)(C)C)c1)Sc1cc(C(C)(C)C)c(O)c(C(C)(C)C)c1 [probucol]
EV secretion compared with NC [1]: particularly effectively boosted EV secretion | EV secretion compared with NC [2]: particularly effectively boosted EV secretion
